The source of these data is paper PMC9515143, “Phosphorylation of Jhd2 by the Ras-cAMP-PKA(Tpk2) pathway regulates histone modifications and autophagy” (Nature Communications, 2022).

The subject of one assay is H3K4me3. As to the kind of experiment: Western blot of H3K4me3 in yeast cells treated with glucose, 2-DG, FBP or pyruvate. In kind it is cell-based, budding yeast (Saccharomyces cerevisiae). The following applies: for H3K4me3 level after FBP or pyruvate treatment: spheroplasts (Zymolase), different concentrations of FBP or pyruvate, 3 hr. An excerpt:
To examine the effect of glucose on histone modifications, we grew yeast cells in 2% glucose-containing medium (YPD) until log phase. Cells were collected and then grown in the medium containing different concentrations of glucose for 0.5 hr.
PKA is activated by cyclic AMP (cAMP), which binds to its inhibitory subunit, Bcy1 and causes its dissociation (Fig. 1g). We thus examined H3K4me3 in deletion mutants of cAMP phosphodiesterases PDE1 and PDE2, which encode enzymes to hydrolyze cAMP and inactivate PKA[39],[40]. […] To test whether the Ras-cAMP-PKA pathway mediates glucose-induced H3K4me3, we examined H3K4me3 in ras1Δ and ras2Δ mutants. […] Ras1/2 can be activated by glycolysis-derived fructose-1,6-biphosphate (FBP) via Cdc25[6] (Fig. 1g).
To examine the effect of glucose on histone modifications, yeast cells were grown in 2% glucose-containing YPD (Yeast Extract Peptone Dextrose) medium until OD600 of 0.7–1.0. Cells were then collected, washed and resuspended in YP medium for 3 hr followed by treatment with different concentrations of glucose for 0.5 hr. For 1NM-PP1 (MCE, HY-13804) treatment, cells were grown in 2% YPD until OD600 of 0.7–1.0. Cells were then treated with 25 μM 1NM-PP1 for 0.5 hr. For FBP and pyruvate treatment, cells were pre-treated with Zymolase (Mpbio, 08320921) to increase the permeability. In brief, cells were grown in YPD medium until OD600 of 0.7–1.0, centrifuged and resuspended in 1 ml SB buffer (100 mM Sorbitol, 20 mM Tris pH 7.4). 10 μl Zymolase was then added and incubated at 30 °C for 15 min. The spheroplasts were washed and cultured in YPD medium containing different concentrations of FBP and pyruvate for 3 hr.
(§1) Cells were grown in 5 ml YPD or selective medium until OD600 of 0.7–1.0. Cells were harvested and lysed in alkaline lysis buffer (2 M NaOH, 8% 2-mercaptoethanol). After centrifugation, the protein pellet was resuspended in 150 μl 2×SDS-sample buffer. Protein samples were separated by 8–15% SDS-PAGE and transferred to PVDF membrane. The blots were probed with primary antibodies followed by incubation with horseradish peroxidase-labelled IgG secondary antibodies. The protein bands were visualized using the ECL Chemiluminescence Detection Kit (Bio-Rad, 170–5061) and quantified with Image J software (v.1.8.0).
(Immunoblotting shows a protein as a band on a membrane.)

For a further assay, the target named is T1, Jhd2-S321A, S340A (Saccharomyces cerevisiae, UniProt P47156, S321A/S340A).
T1 construct: 3xFLAG (C); made in house; host or cells: Saccharomyces cerevisiae BY4741, genomic JHD2 S321A S340A-3xFLAG
T1 sequence (P47156 whole entry S321A/S340A): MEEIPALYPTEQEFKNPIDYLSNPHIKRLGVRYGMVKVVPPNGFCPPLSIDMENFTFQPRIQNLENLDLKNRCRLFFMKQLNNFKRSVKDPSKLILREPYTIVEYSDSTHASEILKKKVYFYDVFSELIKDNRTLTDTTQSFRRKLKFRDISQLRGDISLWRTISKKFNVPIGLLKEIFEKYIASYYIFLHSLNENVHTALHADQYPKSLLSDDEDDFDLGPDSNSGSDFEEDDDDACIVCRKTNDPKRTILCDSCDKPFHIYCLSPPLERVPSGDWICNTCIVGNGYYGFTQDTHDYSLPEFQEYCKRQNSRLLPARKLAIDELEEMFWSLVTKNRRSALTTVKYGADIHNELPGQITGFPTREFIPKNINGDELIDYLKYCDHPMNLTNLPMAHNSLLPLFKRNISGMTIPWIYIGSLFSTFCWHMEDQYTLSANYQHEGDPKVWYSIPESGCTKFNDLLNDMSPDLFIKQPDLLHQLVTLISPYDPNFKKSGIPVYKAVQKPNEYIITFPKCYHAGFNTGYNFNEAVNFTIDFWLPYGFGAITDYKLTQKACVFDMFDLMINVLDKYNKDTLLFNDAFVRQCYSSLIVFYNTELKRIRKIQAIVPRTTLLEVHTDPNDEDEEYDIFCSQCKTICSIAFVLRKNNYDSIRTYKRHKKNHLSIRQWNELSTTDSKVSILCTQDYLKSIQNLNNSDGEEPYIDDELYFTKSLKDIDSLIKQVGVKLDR
As to the kind of experiment: Jhd2 protein level in Jhd2-S321A, S340A cells with MG132. It is filed as cell-based, budding yeast (Saccharomyces cerevisiae). The following applies: for Jhd2/GAPDH: Jhd2-S321A,S340A +MG132, Figure 5c. As to the method:
(§2) To determine how Tpk2-mediated Jhd2 phosphorylation regulates Jhd2 stability, we treated WT Jhd2 and Jhd2-S321A, S340A cells with MG132, the proteasome inhibitor. […] We also examined Jhd2 in a temperature-sensitive proteasome-deficient mutant (cim3-1), which is defective in ATPase activity of 26 S proteasome.
as §1

The next assay deals with T2, WT Jhd2 (Saccharomyces cerevisiae, UniProt P47156).
T2 construct: 3xFLAG (C); made in house; host or cells: Saccharomyces cerevisiae BY4741, genomic JHD2-3xFLAG::KAN
Description: Jhd2 protein level in WT Jhd2 cells with MG132. It is filed as cell-based, budding yeast (Saccharomyces cerevisiae). The following applies: for Jhd2/GAPDH: WT +MG132, WT without MG132 = 1, Figure 5c. As to the method: as §2, §1

A further assay addresses Rpd3 (UniProt P32561). As to the kind of experiment: in vivo co-IP, Western blot. The settings on record: reference: WT Jhd2; sites S321,S340.
Assay [1] addresses histone H3 1-23 (UniProt P61830). Description: biotinylated peptide pull-down, Western blot. The settings on record: reference: WT Jhd2; sites S321,S340.
The target is the same in assay [2]. Description: biotinylated peptide pull-down, Western blot. The settings on record: reference: WT Jhd2; sites S321,S340. This is another data set of the same source.
The target is the same in assay [3]. As to the kind of experiment: biotinylated peptide pull-down, Western blot. The settings on record: reference: WT Jhd2; sites S321,S340. This is another data set of the same source.
The target in a further assay is T3, Jhd2-FLAG (S. cerevisiae (budding yeast), UniProt P47156 1-728, phosphoserine at 321 and 340 (phosphorylated in vivo by Tpk2; extent not stated)).
T3 construct: Jhd2, JmjC domain-containing H3K4 demethylase of budding yeast; tag integrated at the genomic locus; this is named in the assay format or readout; also called WT Jhd2; FLAG-purified Jhd2; not shown: FLAG, C-terminal, kept
T3 sequence (looked up): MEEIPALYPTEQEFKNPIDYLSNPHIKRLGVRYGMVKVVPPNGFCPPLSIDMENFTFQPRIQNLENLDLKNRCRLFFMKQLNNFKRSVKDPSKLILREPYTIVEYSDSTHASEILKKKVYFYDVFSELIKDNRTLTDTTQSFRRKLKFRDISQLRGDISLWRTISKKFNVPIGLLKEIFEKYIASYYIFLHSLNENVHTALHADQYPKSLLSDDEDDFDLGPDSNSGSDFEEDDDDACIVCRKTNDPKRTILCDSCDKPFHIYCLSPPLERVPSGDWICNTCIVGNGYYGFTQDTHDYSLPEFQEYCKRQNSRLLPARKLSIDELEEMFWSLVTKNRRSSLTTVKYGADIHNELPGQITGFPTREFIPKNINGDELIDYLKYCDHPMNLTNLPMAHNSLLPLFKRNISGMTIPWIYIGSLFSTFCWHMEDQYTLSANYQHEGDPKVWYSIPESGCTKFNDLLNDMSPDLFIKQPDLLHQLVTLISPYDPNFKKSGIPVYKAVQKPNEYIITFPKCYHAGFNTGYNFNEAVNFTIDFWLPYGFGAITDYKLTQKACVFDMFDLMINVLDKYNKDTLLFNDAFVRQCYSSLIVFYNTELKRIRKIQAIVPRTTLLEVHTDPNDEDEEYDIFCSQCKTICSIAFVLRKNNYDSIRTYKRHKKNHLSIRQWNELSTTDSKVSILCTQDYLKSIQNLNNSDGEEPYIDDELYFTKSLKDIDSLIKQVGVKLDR
As to the kind of experiment: co-IP; yeast whole cell extract digested with MNase, anti-FLAG M2 agarose 1 hr 4 °C, washed with 350 mM NaCl, 0.1% NP-40, Western blots; WT and tpk2Δ cells. The following applies: partners not purified.

Assay [4] has as its target T4, Tpk2-phosphorylated Jhd2-FLAG (S. cerevisiae (budding yeast), UniProt P47156 1-728, phosphoserine at 321 and 340 (by purified Tpk2 in vitro)).
T4 construct: Jhd2 of budding yeast, phosphorylated in vitro by Tpk2 at S321 and S340; also called immobilized phosphorylated Jhd2; not shown: FLAG, C-terminal, kept
T4 sequence (looked up): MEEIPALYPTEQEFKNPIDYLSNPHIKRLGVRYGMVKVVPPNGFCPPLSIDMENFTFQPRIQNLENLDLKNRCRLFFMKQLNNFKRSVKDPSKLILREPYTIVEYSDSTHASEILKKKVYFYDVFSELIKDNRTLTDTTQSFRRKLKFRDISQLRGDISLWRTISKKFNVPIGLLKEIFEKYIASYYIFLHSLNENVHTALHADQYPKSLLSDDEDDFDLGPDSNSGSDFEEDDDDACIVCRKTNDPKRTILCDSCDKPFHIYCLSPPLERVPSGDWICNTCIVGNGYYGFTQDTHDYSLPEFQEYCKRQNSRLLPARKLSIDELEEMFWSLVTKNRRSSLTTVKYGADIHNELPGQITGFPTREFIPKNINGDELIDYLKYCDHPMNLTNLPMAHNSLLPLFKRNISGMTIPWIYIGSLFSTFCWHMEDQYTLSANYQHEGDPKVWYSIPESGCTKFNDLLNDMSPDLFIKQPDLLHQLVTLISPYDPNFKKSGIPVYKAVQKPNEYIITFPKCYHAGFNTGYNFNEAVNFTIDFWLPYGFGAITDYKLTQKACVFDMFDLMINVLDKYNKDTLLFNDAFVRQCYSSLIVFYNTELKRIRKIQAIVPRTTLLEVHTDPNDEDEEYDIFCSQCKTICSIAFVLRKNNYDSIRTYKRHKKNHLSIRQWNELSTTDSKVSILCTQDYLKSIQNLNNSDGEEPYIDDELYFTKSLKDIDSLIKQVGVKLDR
Description: co-IP; in vitro: dephosphorylated Jhd2 immobilized on anti-FLAG beads, incubated with or without purified Tpk2, Tpk2 removed, then incubated with purified Not4. The following applies: both partners purified.

Where a SMILES comes first, the peptide text is derived from it. The star is where a group is joined. Cbz = O=C(OCc1ccccc1)*

On to `O=CC[C@@H](O)[C@H](O)[C@H](O)CO` [2-DG, 2-Deoxy-D-glucose], for which the “H3K4me3 level after blocking glycolysis” value with H3K4me3 (2-DG) was “significantly reduced H3K4me3”.

For `O=C(COP(=O)(O)O)[C@@H](O)[C@H](O)[C@H](O)COP(=O)(O)O` [FBP, fructose-1,6-biphosphate], in the assay on H3K4me3, the “H3K4me3 level after FBP or pyruvate treatment” value is on record as “increased H3K4me3 in a dose-dependent manner”.

Turning to `CC(C)C[C@@H](C=O)NC(=O)[C@H](CC(C)C)NC(=O)[C@H](CC(C)C)NC(=O)OCc1ccccc1` [MG132] (Cbz-Leu-Leu-Leu-aldehyde), the Jhd2/GAPDH is recorded as 2.104 on Jhd2-S321A, S340A (WT without MG132 = 1, Jhd2-S321A,S340A without MG132 = 1.51305, replicate 4); 1.451 at Jhd2-S321A, S340A (WT without MG132 = 1, Jhd2-S321A,S340A without MG132 = 1.6488, replicate 2); 1.2682 at Jhd2-S321A, S340A (WT without MG132 = 1, Jhd2-S321A,S340A without MG132 = 1.64948, replicate 1); 2.131 on Jhd2-S321A, S340A (WT without MG132 = 1, Jhd2-S321A,S340A without MG132 = 1.95118, replicate 3); 1.233 on WT Jhd2 (replicate 1); 1.396 on WT Jhd2 (replicate 2). Besides, the figures for the Jhd2/GAPDH at WT Jhd2 (replicate 3) and at WT Jhd2 (replicate 4) were 1.451 and 1.135, respectively. Moreover, the “Jhd2 protein level, Jhd2-S321A, S340A” value on Jhd2-S321A, S340A (MG132, Western blot) was “had no significant effect on Jhd2-S321A, S340A protein level”. The “Jhd2 protein level, WT Jhd2” value on WT Jhd2 (MG132, Western blot) is reported as “significantly increased WT Jhd2 protein levels”.

For `CC(=O)C(=O)O` [pyruvate], in the assay with H3K4me3, the “H3K4me3 level after FBP or pyruvate treatment” value is “FBP but not pyruvate treatment increased H3K4me3”.

Regarding “Jhd2 (from UniProt P47156) Jhd2-S321A, S340A”, the “binding against the reference” value in the assay with Rpd3, in the assay with histone H3 1-23 [1], with histone H3 1-23 [2] and with histone H3 1-23 [3] was “stronger” each time.

B1: Not4 (enzyme, S. cerevisiae (budding yeast), UniProt P34909 1-587, looked up)
chain: MMNPHVQENLQAIHNALSNFDTSFLSEDEEDYCPLCIEPMDITDKNFFPCPCGYQICQFCYNNIRQNPELNGRCPACRRKYDDENVRYVTLSPEELKMERAKLARKEKERKHREKERKENEYTNRKHLSGTRVIQKNLVYVVGINPPVPYEEVAPTLKSEKYFGQYGKINKIVVNRKTPHSNNTTSEHYHHHSPGYGVYITFGSKDDAARCIAQVDGTYMDGRLIKAAYGTTKYCSSYLRGLPCPNPNCMFLHEPGEEADSFNKRELHNKQQAQQQSGGTAFTRSGIHNNISTSTAGSNTNLLSENFTGTPSPAAMRAQLHHDSHTNAGTPVLTPAPVPAGSNPWGVTQSATPVTSINLSKNSSSINLPTLNDSLGHHTTPTTENTITSTTTTTNTNATSHSHGSKKKQSLAAEEYKDPYDALGNAVDFLDARLHSLSNYQKRPISIKSNIIDEETYKKYPSLFSWDKIEASKKSDNTLANKLVEILAIKPIDYTASVVQFLQSVNVGVNDNITITDNTKTPTQPIRLQTVSQQIQPPLNVSTPPPGIFGPQHKVPIQQQQMGDTSSRNSSDLLNQLINGRKIIAGN
notes: Not4, E3 ubiquitin ligase of budding yeast; also called purified Not4; source: S. cerevisiae
B1: the binding result (with Jhd2-FLAG; in [4]) was “binds” each time.
